Laboratory results taken from patent publication US10322110B2, “Imidazole-based antimicrobial agents” (priority 2014, dated 2019).
≈ marks a conversion by molar mass, not a printed value. Like-named read-outs stand apart in the source and are kept apart here.

How the values were obtained:
Format in all cases: cell-based
[1] = tested on: Staphylococcus aureus MRSA (COL); test: broth microdilution MIC assay, Staphylococcus aureus MRSA (COL); details: for MIC: Staphylococcus aureus, MRSA; for Antibacterial activity Staphylococcus aureus (MRSA): MIC100 class score, broth microdilution
[2] = tested on: Staphylococcus aureus MSSA (Newman); test: broth microdilution MIC assay, Staphylococcus aureus MSSA (Newman); details: for MIC: Staphylococcus aureus; for Antibacterial activity Staphylococcus aureus (MSSA): MIC100 class score, broth microdilution
[3] = tested on: Staphylococcus epidermidis (PCI 1200, ATCC12228); test: broth microdilution MIC assay, Staphylococcus epidermidis; details: ATCC12228, read-out: Antibacterial activity SE (Staphylococcus epidermidis)
[4] = tested on: Streptococcus pneumoniae (Chester, ATCC49619); test: broth microdilution MIC assay, Streptococcus pneumoniae; details: MIC100 class score, 24 h
[5] = tested on: Human hepatocytes (HepaRG cells); test: human cytotoxicity assay in vitro (CellTiter-Glo), hepatocytes; details: cytotoxicity class
[6] = 24 h, read-out: Antibacterial activity Staphylococcus aureus (MRSA)
[7] = read-out: Antibacterial activity MRSA (Staphylococcus aureus MRSA)
[8] = 24 h, read-out: Antibacterial activity Staphylococcus aureus (MSSA)
[9] = read-out: Antibacterial activity MSSA (Staphylococcus aureus MSSA)

| Compound | MIC [1, 7] | Antibacterial activity Streptococcus pneumoniae [4] | cytotoxicity cell line H (hepatocytes) [5] | other results |
| --- | --- | --- | --- | --- |
| Cc1nc(-c2ccc(-c3cccc(Cl)c3)o2)[nH]c1-c1ccccc1 [Compound 4] | 11 to 201 µg/mL (≈ 32.9 to 600 µM) |  |  | MIC [1, 6]: 11 to 201 µg/mL (≈ 32.9 to 600 µM); MIC [2, 8]: 1 to 3 µg/mL (≈ 2.99 to 8.96 µM); MIC [2, 9]: 1 to 3 µg/mL (≈ 2.99 to 8.96 µM); MIC [3]: 3 to 10 µg/mL (≈ 8.96 to 29.9 µM) |
| Cc1[nH]c(-c2cc(C)n(-c3ccc(Cl)cc3)c2C)nc1-c1ccccc1 [Compound 8] | 20 to 50 µg/mL (≈ 55.3 to 138 µM) | 3 (MIC100 of 2-5 μg/ml) | 2 |  |
| Cc1[nH]c(-c2cc(C)n(-c3ccc(F)cc3F)c2C)nc1-c1ccccc1 [Compound 9] | 20 to 50 µg/mL (≈ 55 to 138 µM) | 2 (MIC100 of 6-10 μg/ml) | 3 |  |
| Cc1[nH]c(-c2cc(C)n(-c3ccc(F)c(F)c3F)c2C)nc1-c1ccccc1 [Compound 10] |  | 2 (MIC100 of 6-10 μg/ml) | 3 |  |
| Cc1nc(-c2ccc(-c3ccccc3OC(F)(F)F)o2)[nH]c1-c1ccc(Br)cc1 [Compound 29] | 11 to 201 µg/mL (≈ 23.7 to 434 µM) | 3 (MIC100 of 2-5 μg/ml) |  | Antibacterial activity Staphylococcus aureus (MRSA) ([1]; 24 h): 2 (MIC100 of 11-201 μg/ml); Antibacterial activity Staphylococcus aureus (MSSA) ([2]; 24 h): 3 (MIC100 of 3-10 μg/ml); MIC [2, 9]: 3 to 10 µg/mL (≈ 6.48 to 21.6 µM) |
| COc1ccc(-c2ccc(-c3nc(C)c(-c4ccccc4)[nH]3)o2)c(C(F)(F)F)c1 [Compound 31] | 3 to 10 µg/mL (≈ 7.53 to 25.1 µM) |  | 3 | MIC [1, 6]: 3 to 10 µg/mL (≈ 7.53 to 25.1 µM); MIC [2, 8]: 3 to 10 µg/mL (≈ 7.53 to 25.1 µM); MIC [2, 9]: 3 to 10 µg/mL (≈ 7.53 to 25.1 µM) |
| Cc1[nH]c(-c2cc(C)n(-c3cccc(C(F)(F)F)c3)c2C)nc1-c1ccccc1 [Compound 36] | 11 to 201 µg/mL (≈ 27.8 to 508 µM) | 3 (MIC100 of 2-5 μg/ml) | 3 | Antibacterial activity Staphylococcus aureus (MRSA) ([1]; 24 h): 2 (MIC100 of 11-201 μg/ml) |
| Cc1[nH]c(-c2ccc(-c3cc(C(F)(F)F)ccc3Cl)o2)nc1-c1ccccc1 [Compound 40] |  |  | 2 |  |
| Cc1ccc(-c2ccc(-c3nc(-c4ccccc4)c(C)[nH]3)o2)cc1 [Compound 52] |  |  | 3 | MIC [1, 6]: 20 to 50 µg/mL (≈ 63.6 to 159 µM) |
| CCc1ccc(-c2ccc(-c3nc(-c4ccccc4)c(C)[nH]3)o2)cc1 [Compound 53] | 20 to 50 µg/mL (≈ 60.9 to 152 µM) |  | 3 | MIC [1, 6]: 20 to 50 µg/mL (≈ 60.9 to 152 µM); MIC [2, 8]: 3 to 10 µg/mL (≈ 9.13 to 30.4 µM); MIC [2, 9]: 3 to 10 µg/mL (≈ 9.13 to 30.4 µM) |
| Cc1[nH]c(-c2cc(C)n(-c3ccc(C(C)C)cc3)c2C)nc1-c1ccccc1 [Compound 58] | 20 to 50 µg/mL (≈ 54.1 to 135 µM) |  | 3 |  |
| Cc1[nH]c(-c2cc(C)n(-c3ccc4c(c3)CCC4)c2C)nc1-c1ccccc1 [Compound 59] |  | 3 (MIC100 of 2-5 μg/ml) | 2 |  |
| Cc1ccccc1-c1ccc(-c2nc(-c3ccccc3)c(C)[nH]2)o1 [Compound 61] |  |  | 3 |  |
| Cc1cccc(C)c1-c1ccc(-c2nc(-c3ccccc3)c(C)[nH]2)o1 [Compound 62] |  |  | 3 |  |
| FC(F)(F)c1ccccc1-c1ccc(-c2nc(Cl)c(-c3ccccc3)[nH]2)o1 [Compound 65] |  |  | 2 | Antibacterial activity Staphylococcus aureus (MSSA) ([2]; 24 h): 2 (MIC100 of 11-201 μg/ml); MIC [2, 9]: 11 to 201 µg/mL (≈ 28.3 to 517 µM) |
| Cc1nc(-c2ccc(-c3ccccc3N(C)C)o2)[nH]c1-c1ccccc1 [Compound 71] |  |  | 3 |  |
| Cc1[nH]c(-c2coc(-c3ccccc3C(F)(F)F)c2)nc1-c1ccccc1 [Compound 72] |  | 2 (MIC100 of 6-10 μg/ml) | 3 |  |
| Cc1nc(-c2ccc(-c3ccc(F)cc3F)o2)[nH]c1-c1ccc(O)cc1 [Compound 80] |  | 3 (MIC100 of 2-5 μg/ml) |  | Antibacterial activity Staphylococcus aureus (MRSA) ([1]; 24 h): 2 (MIC100 of 11-201 μg/ml); Antibacterial activity Staphylococcus aureus (MSSA) ([2]; 24 h): 3 (MIC100 of 3-10 μg/ml) |
| CCCc1[nH]c(-c2ccc(-c3ccc(O)cc3C(F)(F)F)o2)nc1C [Compound 110] |  | 3 (MIC100 of 2-5 μg/ml) |  | Antibacterial activity Staphylococcus aureus (MRSA) ([1]; 24 h): 3 (MIC100 of 3-10 μg/ml) |
